Literature values, collected in patent US7524883B2, “Eponemycin and epoxomicin analogs and uses thereof” (Eisai R&D Management Co., Ltd., priority 2002, dated 2009).

Test system: 20S proteasome

Row | Compound | binding to the 20S proteasome
1 | C=C(C)C[C@H](NC(=O)[C@H](CO)NC(=O)CCCCC(C)C)C(=O)[C@@]1(CO)CO1 [Eponemycin] | bind covalently and irreversibly
2 | CC[C@H](C)[C@H](NC(=O)[C@H]([C@@H](C)CC)N(C)C(C)=O)C(=O)N[C@H](C(=O)N[C@@H](CC(C)C)C(=O)[C@@]1(C)CO1)[C@@H](C)O [Epoxomicin] | bind covalently and irreversibly
